Each block holds one compound with its values, some of them ahead of it.
System: 463943-066-T-J2-PDC complex spheroid growth
Experiment: Anticancer human tumor 463943-066-T-J2-PDC patient-derived colon adenocarcinoma cell line growth inhibition [Asc]
Conditions: for IC50: curve of first compound; for viability, T/C: stronger effect = lower value
Procedure, shortened: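 Tumor cells were grown as multicellular spheroids with stromal HUVEC and mesenchymal stem cells and treated singly or in combination. Concentrations fell in half-log steps from the clinical Cmax, or from 10 microM where none was known.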

[1] = second compound 0.00949 µM, first compound 0.00316 µM
[2] = second compound 0.00949 µM, first compound 0.01 µM
[3] = second compound 0.00949 µM, first compound 0.0316 µM
[4] = second compound 0.00949 µM, first compound 0.1 µM
[5] = second compound 0.03 µM, first compound 0.00316 µM
[6] = second compound 0.03 µM, first compound 0.01 µM
[7] = second compound 0.03 µM, first compound 0.0316 µM
[8] = second compound 0.03 µM, first compound 0.1 µM
[9] = second compound 0.0949 µM, first compound 0.00316 µM
[10] = second compound 0.0949 µM, first compound 0.01 µM
[11] = second compound 0.0949 µM, first compound 0.0316 µM
[12] = second compound 0.0949 µM, first compound 0.1 µM
[13] = second compound 0.3 µM, first compound 0.00316 µM
[14] = second compound 0.3 µM, first compound 0.01 µM
[15] = second compound 0.3 µM, first compound 0.0316 µM
[16] = second compound 0.3 µM, first compound 0.1 µM
[17] = second compound 0.949 µM, first compound 0.00316 µM
[18] = second compound 0.949 µM, first compound 0.01 µM
[19] = second compound 0.949 µM, first compound 0.0316 µM
[20] = second compound 0.949 µM, first compound 0.1 µM
[21] = second compound 3 µM, first compound 0.00316 µM
[22] = second compound 3 µM, first compound 0.01 µM
[23] = second compound 3 µM, first compound 0.0316 µM
[24] = second compound 3 µM, first compound 0.1 µM
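Note: compound exposure lasted 7 days.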
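Throughout, for viability, T/C: 100% = DMSO vehicle control wells.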

- IC50 (second compound 0.00949 µM): > 100 nM
- IC50 (second compound 0.03 µM): > 100 nM
- IC50 (second compound 0.0949 µM): > 100 nM
- IC50 (second compound 0.3 µM): > 100 nM
- IC50 (second compound 0.949 µM): > 100 nM
- IC50 (second compound 3 µM): > 100 nM
SMILES: NC1CCC(NC2CC2c2ccccc2)CC1 (stereo unspecified) + CCN1C(C(=O)NC23CCC(C(=O)O)(CC2)CC3)C(c2cccc(Cl)c2F)C2(C(=O)Nc3cc(Cl)ccc32)C12CCCCC2
- viability, T/C (second compound 0.00949 µM, first compound 0.000316 µM): 89.9%
- viability, T/C (second compound 0.00949 µM, first compound 0.001 µM): 76.8%
- viability, T/C [1]: 87.3%
- viability, T/C [2]: 91.6%
- viability, T/C [3]: 87.1%
- viability, T/C [4]: 89%
- viability, T/C (second compound 0.03 µM, first compound 0.000316 µM): 88.8%
- viability, T/C (second compound 0.03 µM, first compound 0.001 µM): 79.3%
- viability, T/C [5]: 83.1%
- viability, T/C [6]: 82.5%
- viability, T/C [7]: 86.2%
- viability, T/C [8]: 75.3%
- viability, T/C (second compound 0.0949 µM, first compound 0.000316 µM): 84.6%
- viability, T/C (second compound 0.0949 µM, first compound 0.001 µM): 80.8%
- viability, T/C [9]: 77.1%
- viability, T/C [10]: 82.8%
- viability, T/C [11]: 82.4%
- viability, T/C [12]: 75.4%
- viability, T/C (second compound 0.3 µM, first compound 0.000316 µM): 78.2%
- viability, T/C (second compound 0.3 µM, first compound 0.001 µM): 77.3%
- viability, T/C [13]: 71.5%
- viability, T/C [14]: 79%
- viability, T/C [15]: 74.7%
- viability, T/C [16]: 71.9%
- viability, T/C (second compound 0.949 µM, first compound 0.000316 µM): 67.7%
- viability, T/C (second compound 0.949 µM, first compound 0.001 µM): 71.3%
- viability, T/C [17]: 66.7%
- viability, T/C [18]: 67.2%
- viability, T/C [19]: 71.5%
- viability, T/C [20]: 65.8%
- viability, T/C (second compound 3 µM, first compound 0.000316 µM): 69.4%
- viability, T/C (second compound 3 µM, first compound 0.001 µM): 68%
- viability, T/C [21]: 66.5%
- viability, T/C [22]: 65.8%
- viability, T/C [23]: 71%
- viability, T/C [24]: 64.3%

- IC50 (second compound 0.00316 µM): > 10000 nM
- IC50 (second compound 0.01 µM): > 10000 nM
- IC50 (second compound 0.0316 µM): > 10000 nM
- IC50 (second compound 0.1 µM): > 10000 nM
- IC50 (second compound 0.316 µM): > 10000 nM
- IC50 (second compound 1 µM): > 10000 nM
SMILES: O=C(c1cc(Cc2n[nH]c(=O)c3ccccc23)ccc1F)N1CCN(C(=O)C2CC2)CC1 + CNC(C)C(=O)NC1CN(S(=O)(=O)c2cccc(S(=O)(=O)N3CCC4CCC(C(=O)NC(c5ccccc5)c5ccccc5)N4C(=O)C(NC(=O)C(C)NC)C3)c2)CCC2CCC(C(=O)NC(c3ccccc3)c3ccccc3)N2C1=O
- viability, T/C (second compound 0.00316 µM, first compound 0.0316 µM): 91.4%
- viability, T/C (second compound 0.00316 µM, first compound 0.1 µM): 95.9%
- viability, T/C (second compound 0.00316 µM, first compound 0.316 µM): 96.9%
- viability, T/C (second compound 0.00316 µM, first compound 1 µM): 103%
- viability, T/C (second compound 0.00316 µM, first compound 3.16 µM): 89.4%
- viability, T/C (second compound 0.00316 µM, first compound 10 µM): 86.2%
- viability, T/C (second compound 0.01 µM, first compound 0.0316 µM): 94.1%
- viability, T/C (second compound 0.01 µM, first compound 0.1 µM): 87.5%
- viability, T/C (second compound 0.01 µM, first compound 0.316 µM): 91.9%
- viability, T/C (second compound 0.01 µM, first compound 1 µM): 97.5%
- viability, T/C (second compound 0.01 µM, first compound 3.16 µM): 110%
- viability, T/C (second compound 0.01 µM, first compound 10 µM): 87.6%
- viability, T/C (second compound 0.0316 µM, first compound 0.0316 µM): 98.1%
- viability, T/C (second compound 0.0316 µM, first compound 0.1 µM): 100%
- viability, T/C (second compound 0.0316 µM, first compound 0.316 µM): 97.4%
- viability, T/C (second compound 0.0316 µM, first compound 1 µM): 99.2%
- viability, T/C (second compound 0.0316 µM, first compound 3.16 µM): 92.8%
- viability, T/C (second compound 0.0316 µM, first compound 10 µM): 82.9%
- viability, T/C (second compound 0.1 µM, first compound 0.0316 µM): 106%
- viability, T/C (second compound 0.1 µM, first compound 0.1 µM): 93.3%
- viability, T/C (second compound 0.1 µM, first compound 0.316 µM): 90.6%
- viability, T/C (second compound 0.1 µM, first compound 1 µM): 95.8%
- viability, T/C (second compound 0.1 µM, first compound 3.16 µM): 91.3%
- viability, T/C (second compound 0.1 µM, first compound 10 µM): 86.2%
- viability, T/C (second compound 0.316 µM, first compound 0.0316 µM): 90.9%
- viability, T/C (second compound 0.316 µM, first compound 0.1 µM): 91.8%
- viability, T/C (second compound 0.316 µM, first compound 0.316 µM): 85.1%
- viability, T/C (second compound 0.316 µM, first compound 1 µM): 98.1%
- viability, T/C (second compound 0.316 µM, first compound 3.16 µM): 87.2%
- viability, T/C (second compound 0.316 µM, first compound 10 µM): 91.3%
- viability, T/C (second compound 1 µM, first compound 0.0316 µM): 90.5%
- viability, T/C (second compound 1 µM, first compound 0.1 µM): 95%
- viability, T/C (second compound 1 µM, first compound 0.316 µM): 84.4%
- viability, T/C (second compound 1 µM, first compound 1 µM): 89.7%
- viability, T/C (second compound 1 µM, first compound 3.16 µM): 85.9%
- viability, T/C (second compound 1 µM, first compound 10 µM): 80.9%

- IC50 (second compound 0.00949 µM): 188 nM
- IC50 (second compound 0.03 µM): 133 nM
- IC50 (second compound 0.0949 µM): 117 nM
- IC50 (second compound 0.3 µM): 70.6 nM
- IC50 (second compound 0.949 µM): 34.9 nM
- IC50 (second compound 3 µM): 17.7 nM
SMILES: O=C(c1ccc(F)c(F)c1Nc1ccc(I)cc1F)N1CC(O)([C@@H]2CCCCN2)C1 + CCN1C(C(=O)NC23CCC(C(=O)O)(CC2)CC3)C(c2cccc(Cl)c2F)C2(C(=O)Nc3cc(Cl)ccc32)C12CCCCC2
- viability, T/C [1]: 86.3%
- viability, T/C [2]: 78.7%
- viability, T/C [3]: 74.2%
- viability, T/C [4]: 63.5%
- viability, T/C (second compound 0.00949 µM, first compound 0.316 µM): 39.1%
- viability, T/C (second compound 0.00949 µM, first compound 1 µM): 27.9%
- viability, T/C [5]: 93.5%
- viability, T/C [6]: 77.5%
- viability, T/C [7]: 63.7%
- viability, T/C [8]: 56.2%
- viability, T/C (second compound 0.03 µM, first compound 0.316 µM): 40%
- viability, T/C (second compound 0.03 µM, first compound 1 µM): 29%
- viability, T/C [9]: 84.5%
- viability, T/C [10]: 74.7%
- viability, T/C [11]: 65.7%
- viability, T/C [12]: 50.8%
- viability, T/C (second compound 0.0949 µM, first compound 0.316 µM): 39.4%
- viability, T/C (second compound 0.0949 µM, first compound 1 µM): 28.2%
- viability, T/C [13]: 79.5%
- viability, T/C [14]: 65.2%
- viability, T/C [15]: 54.9%
- viability, T/C [16]: 50.5%
- viability, T/C (second compound 0.3 µM, first compound 0.316 µM): 37.8%
- viability, T/C (second compound 0.3 µM, first compound 1 µM): 29.6%
- viability, T/C [17]: 67.8%
- viability, T/C [18]: 60%
- viability, T/C [19]: 48.3%
- viability, T/C [20]: 44.1%
- viability, T/C (second compound 0.949 µM, first compound 0.316 µM): 39.5%
- viability, T/C (second compound 0.949 µM, first compound 1 µM): 32.4%
- viability, T/C [21]: 65%
- viability, T/C [22]: 55.7%
- viability, T/C [23]: 44.2%
- viability, T/C [24]: 40.4%
- viability, T/C (second compound 3 µM, first compound 0.316 µM): 36.6%
- viability, T/C (second compound 3 µM, first compound 1 µM): 33.8%

Source: PubChem BioAssay AID1963422 (Molecular Pharmacology Branch, DTP, NCI, 2024)
